Source: BindingDB's records for doi:10.1016/j.bmcl.2003.07.008 (University of Lille, 2003)

Assay: Inhibition of 1-monooleoyl glycerol (MOG) induced beta-hematin formation

IC50 [µM] | SMILES
43.4 | CC(C)CN(CCCN1CCN(CCCNc2ccnc3cc(Cl)ccc23)CC1)CC(C)C [7-chloro-N-(3-(4-(3-(diisobutylamino)propyl)piperazin-1-yl)propyl)quinolin-4-amine]
63.6 | CC(C)CN(CCCN1CCN(CCCNc2nc3ccccc3[nH]2)CC1)CC(C)C [(1H-Benzoimidazol-2-yl)-{3-[4-(3-diisobutylamino-propyl)-piperazin-1-yl]-propyl}-amine]
> 200 | CC(C)CN(CCCN1CCN(CCCNc2nc3ccccc3o2)CC1)CC(C)C [Benzooxazol-2-yl-{3-[4-(3-diisobutylamino-propyl)-piperazin-1-yl]-propyl}-amine]
> 200 | CC(C)CN(CCCN1CCN(CCCNCc2ccncc2)CC1)CC(C)C [Diisobutyl-[3-(4-{3-[(pyridin-4-ylmethyl)-amino]-propyl}-piperazin-1-yl)-propyl]-amine]
> 200 | CC(C)CN(CCCN1CCN(CCCNc2cnccn2)CC1)CC(C)C [{3-[4-(3-Diisobutylamino-propyl)-piperazin-1-yl]-propyl}-pyrazin-2-yl-amine]
62.3 | CC(C)CN(CCCN1CCN(CCCNc2ccnc3ccccc23)CC1)CC(C)C [{3-[4-(3-Diisobutylamino-propyl)-piperazin-1-yl]-propyl}-quinolin-4-yl-amine]
